# Source: the kinase profiling compilation of Christmann-Franck et al. (2016)
# Assays:
# Experiment in all cases: KINOMEscan competition binding
# Settings in all cases: compound 10.0 µM
# [1] = biological target: ACVR2A (human) (UniProt P27037)
# [2] = biological target: AURKB (human) (UniProt Q96GD4)
# [3] = biological target: BMPR1A (human) (UniProt P36894)
# [4] = biological target: CAMK2G (human) (UniProt Q13555)
# [5] = biological target: CDC42BPA (human) (UniProt Q5VT25)
# [6] = biological target: CDC42BPG (human) (UniProt Q6DT37)
# [7] = biological target: CDK17 (human) (UniProt Q00537)
# [8] = biological target: CDK5 (human) (UniProt Q00535)
# [9] = biological target: CHEK1 (human) (UniProt O14757)
# [10] = biological target: CLK4 (human) (UniProt Q9HAZ1)
# [11] = biological target: CSNK1A1L (human) (UniProt Q8N752)
# [12] = biological target: DAPK2 (human) (UniProt Q9UIK4)
# [13] = biological target: DMPK (human) (UniProt Q09013)
# [14] = biological target: FGFR1 (human) (UniProt P11362)
# [15] = biological target: FRK (human) (UniProt P42685)
# [16] = biological target: INSR (human) (UniProt P06213)
# [17] = biological target: INSRR (human) (UniProt P14616)
# [18] = system: KIT (human), P10721 [V559D]
# [19] = biological target: MAP3K11 (human) (UniProt Q16584)
# [20] = biological target: MAP4K3 (human) (UniProt Q8IVH8)
# [21] = biological target: MAPK8 (human) (UniProt P45983)
# [22] = biological target: MARK3 (human) (UniProt P27448)
# [23] = biological target: MERTK (human) (UniProt Q12866)
# [24] = biological target: MST1R (human) (UniProt Q04912)
# [25] = biological target: NEK9 (human) (UniProt Q8TD19)
# [26] = biological target: PAK3 (human) (UniProt O75914)
# [27] = biological target: PIK3C2B (human) (UniProt O00750)
# [28] = biological target: PIK3CD (human) (UniProt O00329)
# [29] = biological target: PLK1 (human) (UniProt P53350)
# [30] = biological target: PRKAA2 (human) (UniProt P54646)
# [31] = biological target: STK11 (human) (UniProt Q15831)
# [32] = biological target: STK17A (human) (UniProt Q9UEE5)
# [33] = biological target: STK24 (human) (UniProt Q9Y6E0)
# [34] = biological target: STK4 (human) (UniProt Q13043)
# [35] = biological target: TGFBR2 (human) (UniProt P37173)
# [36] = biological target: TLK2 (human) (UniProt Q86UE8)
# [37] = biological target: TYK2 JH1 catalytic (human) (UniProt P29597)
# [38] = system: ABL1 (human), P00519 [M351T]
# [39] = system: FLT3 (human), P36888 [N841I]
# [40] = biological target: JAK3 JH1 catalytic (human) (UniProt P52333)
# TYK2 JH1 catalytic (human), sequence (P29597 whole entry, looked up): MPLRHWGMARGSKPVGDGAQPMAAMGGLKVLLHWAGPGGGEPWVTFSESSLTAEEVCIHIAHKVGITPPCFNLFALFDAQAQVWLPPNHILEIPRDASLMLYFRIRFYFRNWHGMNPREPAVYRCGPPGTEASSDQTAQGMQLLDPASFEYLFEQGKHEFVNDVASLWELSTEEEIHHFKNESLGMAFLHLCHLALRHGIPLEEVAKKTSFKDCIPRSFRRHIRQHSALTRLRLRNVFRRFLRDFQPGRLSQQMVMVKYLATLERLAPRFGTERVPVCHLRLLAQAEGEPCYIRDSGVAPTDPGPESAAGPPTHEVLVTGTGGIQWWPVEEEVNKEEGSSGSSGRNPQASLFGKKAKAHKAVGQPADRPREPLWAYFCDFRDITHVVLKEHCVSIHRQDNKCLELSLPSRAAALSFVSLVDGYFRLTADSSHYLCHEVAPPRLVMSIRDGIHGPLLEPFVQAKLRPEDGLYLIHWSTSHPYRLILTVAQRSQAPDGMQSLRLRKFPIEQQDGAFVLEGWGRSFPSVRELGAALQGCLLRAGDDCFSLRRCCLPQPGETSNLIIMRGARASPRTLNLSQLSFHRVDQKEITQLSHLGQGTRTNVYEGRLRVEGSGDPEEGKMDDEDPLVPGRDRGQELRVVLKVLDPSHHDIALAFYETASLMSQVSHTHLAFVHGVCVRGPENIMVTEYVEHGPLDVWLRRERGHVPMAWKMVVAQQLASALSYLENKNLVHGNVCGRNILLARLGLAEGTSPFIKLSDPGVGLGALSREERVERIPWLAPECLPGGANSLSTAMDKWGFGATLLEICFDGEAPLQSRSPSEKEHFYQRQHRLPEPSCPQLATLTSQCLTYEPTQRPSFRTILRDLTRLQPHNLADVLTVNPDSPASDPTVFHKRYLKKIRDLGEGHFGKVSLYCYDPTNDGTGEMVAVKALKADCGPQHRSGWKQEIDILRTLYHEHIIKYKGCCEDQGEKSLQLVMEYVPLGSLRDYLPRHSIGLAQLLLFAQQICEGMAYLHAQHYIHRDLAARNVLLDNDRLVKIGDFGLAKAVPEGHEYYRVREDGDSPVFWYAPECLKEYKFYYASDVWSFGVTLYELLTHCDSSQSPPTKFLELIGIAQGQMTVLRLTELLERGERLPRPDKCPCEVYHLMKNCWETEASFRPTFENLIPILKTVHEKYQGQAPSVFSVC
# INSR (human), sequence (P06213 whole entry, looked up): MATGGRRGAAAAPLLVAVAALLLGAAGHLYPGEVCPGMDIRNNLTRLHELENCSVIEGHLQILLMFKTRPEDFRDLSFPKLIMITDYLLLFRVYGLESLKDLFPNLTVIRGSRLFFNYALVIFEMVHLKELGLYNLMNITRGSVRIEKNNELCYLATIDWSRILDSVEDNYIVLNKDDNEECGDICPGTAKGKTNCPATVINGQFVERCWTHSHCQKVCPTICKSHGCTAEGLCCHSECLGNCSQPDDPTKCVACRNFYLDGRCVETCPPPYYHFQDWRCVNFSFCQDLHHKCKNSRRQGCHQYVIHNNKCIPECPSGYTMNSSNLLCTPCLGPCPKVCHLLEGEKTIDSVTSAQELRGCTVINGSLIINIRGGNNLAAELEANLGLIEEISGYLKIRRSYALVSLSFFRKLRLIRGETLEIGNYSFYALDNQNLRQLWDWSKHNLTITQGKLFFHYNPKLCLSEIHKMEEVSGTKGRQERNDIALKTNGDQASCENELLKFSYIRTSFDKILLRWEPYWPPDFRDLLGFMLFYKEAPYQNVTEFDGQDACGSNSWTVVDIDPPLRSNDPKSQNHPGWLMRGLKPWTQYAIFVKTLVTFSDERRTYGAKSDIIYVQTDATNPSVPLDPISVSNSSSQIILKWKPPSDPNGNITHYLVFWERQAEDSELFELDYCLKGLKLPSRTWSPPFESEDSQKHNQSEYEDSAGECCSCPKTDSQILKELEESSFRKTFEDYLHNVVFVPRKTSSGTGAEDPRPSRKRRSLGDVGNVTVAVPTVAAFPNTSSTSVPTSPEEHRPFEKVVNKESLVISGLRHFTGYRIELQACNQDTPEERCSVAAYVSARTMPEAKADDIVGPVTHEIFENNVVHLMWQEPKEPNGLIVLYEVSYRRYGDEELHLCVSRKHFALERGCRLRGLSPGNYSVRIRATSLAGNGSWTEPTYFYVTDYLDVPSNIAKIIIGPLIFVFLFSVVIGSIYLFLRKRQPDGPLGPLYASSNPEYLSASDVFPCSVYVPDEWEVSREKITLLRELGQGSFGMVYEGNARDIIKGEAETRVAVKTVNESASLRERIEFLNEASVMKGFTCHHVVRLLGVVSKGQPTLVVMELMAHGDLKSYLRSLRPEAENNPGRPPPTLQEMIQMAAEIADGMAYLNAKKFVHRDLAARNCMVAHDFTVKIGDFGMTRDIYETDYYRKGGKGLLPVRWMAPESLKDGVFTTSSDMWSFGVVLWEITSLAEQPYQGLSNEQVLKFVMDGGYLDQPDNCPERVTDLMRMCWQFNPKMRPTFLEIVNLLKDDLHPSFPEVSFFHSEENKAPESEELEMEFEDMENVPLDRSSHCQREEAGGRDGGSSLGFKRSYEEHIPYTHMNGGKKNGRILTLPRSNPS
# BMPR1A (human), sequence (P36894 whole entry, looked up): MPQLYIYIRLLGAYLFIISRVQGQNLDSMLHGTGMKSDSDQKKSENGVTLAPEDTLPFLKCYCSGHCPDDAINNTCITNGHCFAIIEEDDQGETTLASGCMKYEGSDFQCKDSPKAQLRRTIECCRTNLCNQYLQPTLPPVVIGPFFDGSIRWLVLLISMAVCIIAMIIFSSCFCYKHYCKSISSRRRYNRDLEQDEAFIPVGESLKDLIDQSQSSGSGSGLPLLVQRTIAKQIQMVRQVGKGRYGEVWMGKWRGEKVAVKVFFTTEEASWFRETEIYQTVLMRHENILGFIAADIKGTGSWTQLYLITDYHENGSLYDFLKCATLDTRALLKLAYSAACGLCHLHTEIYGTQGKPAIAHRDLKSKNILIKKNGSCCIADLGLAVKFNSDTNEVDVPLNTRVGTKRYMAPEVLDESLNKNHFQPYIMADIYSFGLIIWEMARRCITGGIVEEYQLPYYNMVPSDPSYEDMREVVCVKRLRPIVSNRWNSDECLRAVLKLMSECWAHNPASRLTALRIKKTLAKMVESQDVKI
# CDK5 (human), sequence (Q00535 whole entry, looked up): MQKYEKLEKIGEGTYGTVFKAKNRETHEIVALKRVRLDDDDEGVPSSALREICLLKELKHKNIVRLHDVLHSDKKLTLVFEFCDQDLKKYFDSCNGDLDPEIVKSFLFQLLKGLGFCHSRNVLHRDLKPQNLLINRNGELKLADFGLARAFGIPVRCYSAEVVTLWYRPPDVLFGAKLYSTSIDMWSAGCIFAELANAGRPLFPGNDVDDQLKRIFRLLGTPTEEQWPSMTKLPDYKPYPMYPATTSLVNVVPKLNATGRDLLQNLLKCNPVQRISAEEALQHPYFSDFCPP
# PIK3CD (human), sequence (O00329 whole entry, looked up): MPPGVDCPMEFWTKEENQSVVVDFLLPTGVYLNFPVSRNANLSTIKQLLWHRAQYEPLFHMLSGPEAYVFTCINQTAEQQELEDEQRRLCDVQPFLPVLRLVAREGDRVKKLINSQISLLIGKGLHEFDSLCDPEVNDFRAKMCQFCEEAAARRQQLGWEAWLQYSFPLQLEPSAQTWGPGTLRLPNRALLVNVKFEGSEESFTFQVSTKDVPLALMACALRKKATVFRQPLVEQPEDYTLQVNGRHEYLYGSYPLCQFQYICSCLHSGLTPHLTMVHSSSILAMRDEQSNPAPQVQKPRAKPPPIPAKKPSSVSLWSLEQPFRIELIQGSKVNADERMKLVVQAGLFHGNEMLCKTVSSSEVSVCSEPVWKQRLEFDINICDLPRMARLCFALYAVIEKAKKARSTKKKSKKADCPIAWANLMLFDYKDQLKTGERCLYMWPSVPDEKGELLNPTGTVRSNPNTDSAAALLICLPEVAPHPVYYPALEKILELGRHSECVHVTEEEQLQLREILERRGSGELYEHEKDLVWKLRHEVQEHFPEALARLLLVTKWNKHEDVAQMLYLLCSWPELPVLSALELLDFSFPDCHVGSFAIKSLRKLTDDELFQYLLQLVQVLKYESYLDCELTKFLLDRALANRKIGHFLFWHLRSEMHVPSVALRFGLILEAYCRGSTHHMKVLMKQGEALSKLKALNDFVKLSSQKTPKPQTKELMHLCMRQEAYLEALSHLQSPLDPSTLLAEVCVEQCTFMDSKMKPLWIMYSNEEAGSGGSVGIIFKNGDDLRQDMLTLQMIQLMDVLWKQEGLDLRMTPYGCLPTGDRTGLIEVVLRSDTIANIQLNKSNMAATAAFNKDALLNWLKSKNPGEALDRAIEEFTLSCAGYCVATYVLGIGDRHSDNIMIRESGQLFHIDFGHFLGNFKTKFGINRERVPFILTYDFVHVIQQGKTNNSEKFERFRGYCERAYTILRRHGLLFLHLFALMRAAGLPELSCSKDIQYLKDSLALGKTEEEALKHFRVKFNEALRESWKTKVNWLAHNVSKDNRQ
# DAPK2 (human), sequence (Q9UIK4 whole entry, looked up): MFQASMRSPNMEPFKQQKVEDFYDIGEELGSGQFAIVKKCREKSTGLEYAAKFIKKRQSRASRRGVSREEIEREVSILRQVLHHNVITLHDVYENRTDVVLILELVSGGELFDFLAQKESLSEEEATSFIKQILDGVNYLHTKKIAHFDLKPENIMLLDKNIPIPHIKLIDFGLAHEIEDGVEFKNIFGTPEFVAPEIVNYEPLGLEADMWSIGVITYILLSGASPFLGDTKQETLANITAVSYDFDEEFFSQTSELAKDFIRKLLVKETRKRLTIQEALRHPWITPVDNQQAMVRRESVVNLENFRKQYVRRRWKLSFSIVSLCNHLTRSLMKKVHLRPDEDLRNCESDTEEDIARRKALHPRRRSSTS
SMILES,"kinase still bound, per cent of control [1]","kinase still bound, per cent of control [3]","kinase still bound, per cent of control [4]","kinase still bound, per cent of control [5]","kinase still bound, per cent of control [6]","kinase still bound, per cent of control [7]","kinase still bound, per cent of control [8]","kinase still bound, per cent of control [10]","kinase still bound, per cent of control [11]","kinase still bound, per cent of control [12]","kinase still bound, per cent of control [13]","kinase still bound, per cent of control [14]","kinase still bound, per cent of control [15]","kinase still bound, per cent of control [16]","kinase still bound, per cent of control [17]","kinase still bound, per cent of control [18]","kinase still bound, per cent of control [19]","kinase still bound, per cent of control [20]","kinase still bound, per cent of control [21]","kinase still bound, per cent of control [22]",also measured
O=C(O)c1ccc(Nc2ncc3c(n2)-c2ccc(Cl)cc2C(c2c(F)cccc2F)=NC3)cc1,95%,36%,98%,84%,92%,100%,100%,100%,97%,41%,79%,14%,73%,59%,100%,63%,84%,97%,100%,100%,"kinase still bound, per cent of control [2]: 0.3%; kinase still bound, per cent of control [9]: 91%; kinase still bound, per cent of control [23]: 3%; kinase still bound, per cent of control [24]: 92%; kinase still bound, per cent of control [25]: 100%; kinase still bound, per cent of control [26]: 52%; kinase still bound, per cent of control [27]: 93%; kinase still bound, per cent of control [28]: 88%; kinase still bound, per cent of control [29]: 100%; kinase still bound, per cent of control [30]: 67%; kinase still bound, per cent of control [31]: 92%; kinase still bound, per cent of control [32]: 1.9%; kinase still bound, per cent of control [33]: 76%; kinase still bound, per cent of control [34]: 85%; kinase still bound, per cent of control [35]: 58%; kinase still bound, per cent of control [36]: 83%; kinase still bound, per cent of control [37]: 100%"
Cc1ccc2nc(NCCN)c3ncc(C)n3c2c1,92%,32%,100%,85%,94%,92%,100%,53%,100%,65%,100%,100%,100%,99%,100%,23%,87%,80%,66%,100%,"kinase still bound, per cent of control [38]: 100%; kinase still bound, per cent of control [2]: 67%; kinase still bound, per cent of control [9]: 91%; kinase still bound, per cent of control [39]: 41%; kinase still bound, per cent of control [40]: 100%; kinase still bound, per cent of control [23]: 100%; kinase still bound, per cent of control [24]: 100%; kinase still bound, per cent of control [25]: 100%; kinase still bound, per cent of control [26]: 62%; kinase still bound, per cent of control [27]: 100%; kinase still bound, per cent of control [28]: 99%; kinase still bound, per cent of control [29]: 100%; kinase still bound, per cent of control [30]: 100%; kinase still bound, per cent of control [32]: 68%; kinase still bound, per cent of control [33]: 81%; kinase still bound, per cent of control [34]: 100%; kinase still bound, per cent of control [35]: 93%; kinase still bound, per cent of control [36]: 88%; kinase still bound, per cent of control [37]: 100%"
CCCS(=O)(=O)Nc1ccc(F)c(C(=O)c2c[nH]c3ncc(-c4ccc(Cl)cc4)cc23)c1F,100%,34%,95%,80%,34%,86%,96%,100%,100%,95%,67%,49%,16%,78%,73%,0.05%,81%,56%,18%,61%,"kinase still bound, per cent of control [38]: 55%; kinase still bound, per cent of control [40]: 83%; kinase still bound, per cent of control [23]: 60%; kinase still bound, per cent of control [24]: 100%; kinase still bound, per cent of control [25]: 98%; kinase still bound, per cent of control [26]: 69%; kinase still bound, per cent of control [27]: 100%; kinase still bound, per cent of control [28]: 89%; kinase still bound, per cent of control [29]: 100%; kinase still bound, per cent of control [30]: 63%; kinase still bound, per cent of control [31]: 75%; kinase still bound, per cent of control [32]: 62%; kinase still bound, per cent of control [33]: 77%; kinase still bound, per cent of control [34]: 11%; kinase still bound, per cent of control [35]: 2.5%; kinase still bound, per cent of control [36]: 94%; kinase still bound, per cent of control [37]: 47%"
